Reference: patent US12384744B2, “Enzyme-cleavable methadone prodrugs and methods of use thereof” (Ensysce Biosciences Inc., priority 2021, dated 2025)

System: trypsin
Test: Digestion with trypsin (trypsin digestion of methadone prodrugs and release of methadone)
Format: biochemical
Experimental: FIG. 6 depicts an example of trypsin digestion of methadone prodrugs according to certain embodiments. All pro-drugs are digested fully within 8-24 h. The pro-drug with 1-methylethyl linker is slightly slower, requiring 24-48 h.

CC=C(OC(=O)N(C)C(C)CNC(=O)[C@H](CCCNC(=N)N)NC(=O)c1ccccc1)C(CC(C)N(C)C)(c1ccccc1)c1ccccc1 (stereo partly drawn) [pro-drug with 1-methylethyl linker, 6-(dimethylamino)-4,4-diphenylhept-2-en-3-yl (1-((S)-2-benzamido-5-guanidinopentanamido)propan-2-yl)(methyl)carbamate]
time until pro-drug is digested fully by trypsin (FIG. 6): 24 to 48 h | release of methadone from the release intermediate after trypsin digestion (FIG. 6 and FIGS. 7A-7D, result in words): rapid release to methadone
